Reference: ChEMBL document CHEMBL1201862, “PubChem BioAssay data set” (2004)
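Assay format: 96-well plates, 48-hour exposure. The concentration for 50% growth inhibition is given as GI50.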 Active and inactive are the calls of the source. Rule as the data show it: active = GI50 up to about 1.1 µM and inactive = higher.

Experiments:
Experiment in all cases: inhibition of tumour cell growth, NCI panel, 48 h
DU-145 = test system: DU-145
Hs-578T = test system: Hs-578T
MDA-MB-435 = test system: MDA-MB-435
MDA-N = test system: MDA-N
T47D = test system: T47D
DMS-114 = test system: DMS-114
DMS-273 = test system: DMS-273
SNB-78 = test system: SNB-78

| Structure (SMILES) | GI50 (DU-145) | GI50 (Hs-578T) | GI50 (MDA-MB-435) | GI50 (MDA-N) | GI50 (T47D) | GI50 (DMS-114) | GI50 (DMS-273) | GI50 (SNB-78) |
| --- | --- | --- | --- | --- | --- | --- | --- | --- |
| O=C1CCC[C@H]2O[C@@H](COC(=O)c3ccccc3)C[C@H]2O1 | > 100 µM (inactive) | > 100 µM (inactive) | > 100 µM (inactive) | > 100 µM (inactive) | > 100 µM (inactive) | – | – | – |
| CC(C)OP(=O)(OC(C)C)C1=NN(c2ccc([N+](=O)[O-])cc2)C(P(=O)(OC(C)C)OC(C)C)=NN1c1ccc([N+](=O)[O-])cc1 | – | – | – | – | – | 12.8 µM (inactive) | 22.5 µM (inactive) | – |
| O=C(CCc1nnc2s/c(=C\c3ccccc3Cl)c(=O)n12)Nc1cc(Cl)ccc1Cl | – | – | – | – | – | > 100 µM (inactive) | – | > 100 µM (inactive) |
| CC(=O)OC1CC[C@@]2(C)C(=CC[C@@H]3[C@@H]2CC[C@]2(C)C(OC(C)=O)[C@H](n4ccnc4)C[C@@H]32)C1 (some centres undefined) | 73.5 µM (inactive) | 47 µM (inactive) | 16.9 µM (inactive) | 21 µM (inactive) | – | – | – | – |
| CCCSc1cc(Cl)c(C)cc1S(=O)(=O)n1ccnc1OCCCN(C)C | > 100 µM (inactive) | > 100 µM (inactive) | > 100 µM (inactive) | > 100 µM (inactive) | > 100 µM (inactive) | – | – | – |
| O=[N+]([O-])c1nccn1COCCF | – | – | – | – | – | > 100 µM (inactive) | – | > 100 µM (inactive) |
| [O-]/N=[N+](/[O-])C1CCCCC1=[N+]1CCOCC1 (centres undefined) | – | – | – | – | – | > 100 µM (inactive) | – | > 100 µM (inactive) |
| CO/C(=C/C(=O)C(Cl)(Cl)Cl)CC/C(=C\C(=O)C(Cl)(Cl)Cl)OC | 25.1 µM (inactive) | 35.9 µM (inactive) | 19.8 µM (inactive) | 22.8 µM (inactive) | 25.4 µM (inactive) | – | – | – |
| Cc1ccc([S+]([O-])c2sccc2C=O)cc1 (centres undefined) | 54.3 µM (inactive) | 24.4 µM (inactive) | 24.7 µM (inactive) | 27.6 µM (inactive) | 43.7 µM (inactive) | – | – | – |
| O=C(CNC(=O)OCc1ccccc1)NCCCCC(NC(=O)OCc1ccccc1)C(=O)NC(CCCCNC(=O)CNC(=O)OCc1ccccc1)C(=O)OCc1ccccc1 (centres undefined) | > 62.5 µM (inactive) | – | > 62.5 µM (inactive) | – | > 62.5 µM (inactive) | – | – | – |
| CC1CC(=O)N2CCCNC2=C1C#N (centres undefined) | > 100 µM (inactive) | > 100 µM (inactive) | > 100 µM (inactive) | > 100 µM (inactive) | > 100 µM (inactive) | – | – | – |
| CC(C)OP(=O)(OC(C)C)/C(=N/Nc1ccc([N+](=O)[O-])cc1)NN | – | – | – | – | – | 61.1 µM (inactive) | > 100 µM (inactive) | > 100 µM (inactive) |
| CP(C)(=S)P(C)(C)=S | > 100 µM (inactive) | > 100 µM (inactive) | – | > 100 µM (inactive) | > 100 µM (inactive) | – | – | – |
| CC(=O)C1(Cc2cccc3ccccc23)S(=O)(=O)OCCOS1(=O)=O | 18.4 µM (inactive) | – | 14.7 µM (inactive) | 11.8 µM (inactive) | 18.5 µM (inactive) | – | – | – |
| COc1c(/C=C/C=O)cc2c(c1OC)OCO2 | 28.4 µM (inactive) | 55.8 µM (inactive) | 49.3 µM (inactive) | 24.5 µM (inactive) | 23.3 µM (inactive) | – | – | – |
| COc1c2c(nc3ccccc13)-c1cc(C(CC(=O)OC(C)(C)C)C(=O)OC(C)C)c(CO)c(=O)n1C2 (centres undefined) | 22.2 µM (inactive) | > 75.3 µM (inactive) | > 94.2 µM (inactive) | > 100 µM (inactive) | 22.1 µM (inactive) | – | – | – |
| C=C(C[C@@H](O)[C@H](C)NC(=O)OCc1ccccc1)C(=O)OC(C)(C)C | 45.7 µM (inactive) | > 100 µM (inactive) | 49.7 µM (inactive) | 29.7 µM (inactive) | 13.1 µM (inactive) | – | – | – |
| N#C/C(=C/C=C/c1ccco1)C(N)=O | > 10 µM (inactive) | > 10 µM (inactive) | > 10 µM (inactive) | > 10 µM (inactive) | > 10 µM (inactive) | – | – | – |
| N#Cc1c(C#N)c(-c2ccccc2)n(Cc2ccccc2)c1N | > 100 µM (inactive) | 25.6 µM (inactive) | > 100 µM (inactive) | > 100 µM (inactive) | > 100 µM (inactive) | – | – | – |
| Cn1c(=N)n[n+]([O-])c2ccccc21 | 2.28 µM (inactive) | – | 0.877 µM (active) | 1.66 µM (inactive) | – | – | – | – |
| COC(=O)C[C@H](COCc1ccccc1)NC(=O)C[C@H](COCc1ccccc1)NC(=O)C[C@H](COCc1ccccc1)NC(=O)OC(C)(C)C | 23.3 µM (inactive) | 34.6 µM (inactive) | 32.8 µM (inactive) | > 100 µM (inactive) | 24.7 µM (inactive) | – | – | – |
| Cc1ccc(OCC2OC(n3cnc4c(N(C)C)nc(Br)nc43)CC2Oc2ccc(C)cc2)cc1 (centres undefined) | > 100 µM (inactive) | > 100 µM (inactive) | > 100 µM (inactive) | > 100 µM (inactive) | > 100 µM (inactive) | – | – | – |
| COc1cc(/C=C2\C[C@H]3[C@@H]4CC=C5C[C@@H](OC(C)=O)CC[C@]5(C)[C@H]4CC[C@]3(C)\C2=N\O)cc(OC)c1OC | 4.42 µM (inactive) | 4.37 µM (inactive) | 3.82 µM (inactive) | 4.62 µM (inactive) | 1.64 µM (inactive) | – | – | – |
| NC1c2c(Br)sc(N3CCCC3)c2C(=O)C1O (centres undefined) | > 50 µM (inactive) | > 50 µM (inactive) | > 50 µM (inactive) | > 50 µM (inactive) | > 50 µM (inactive) | – | – | – |
| CCCCCOc1ccc(NC2=C(Cl)C(=O)c3c(O)ccc(O)c3C2=O)cc1 | > 10 µM (inactive) | 1.91 µM (inactive) | 2.24 µM (inactive) | 3.03 µM (inactive) | 2.76 µM (inactive) | – | – | – |
